Source: PubChem BioAssay (NCI)
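Briefly, cells in 96-well plates were exposed to five compound concentrations for 48 h, and endpoints were estimated by linear interpolation. GI50 is the concentration that inhibits growth by half. TGI: concentration producing complete growth inhibition.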

What was measured:
Experiment in all cases: NCI tumour cell line growth inhibition, 48 h
RXF 393 renal = test system: RXF 393 renal
786-0 renal = test system: 786-0 renal
IGROV1 ovarian = test system: IGROV1 ovarian
UACC-62 melanoma = test system: UACC-62 melanoma
SR leukemia = test system: SR leukemia
DU-145 prostate = test system: DU-145 prostate
SF-268 CNS = test system: SF-268 CNS
SNB-19 CNS = test system: SNB-19 CNS
SNB-75 CNS = test system: SNB-75 CNS
A498 renal = test system: A498 renal
OVCAR-8 ovarian = test system: OVCAR-8 ovarian
SF-539 CNS = test system: SF-539 CNS
HL-60(TB) leukemia = test system: HL-60(TB) leukemia
OVCAR-4 ovarian = test system: OVCAR-4 ovarian
MOLT-4 leukemia = test system: MOLT-4 leukemia
T-47D breast = test system: T-47D breast
PC-3 prostate = test system: PC-3 prostate
U251 CNS = test system: U251 CNS
HCC-2998 colon = test system: HCC-2998 colon
LOX IMVI melanoma = test system: LOX IMVI melanoma
UACC-257 melanoma = test system: UACC-257 melanoma
CCRF-CEM leukemia = test system: CCRF-CEM leukemia
HS 578T breast = test system: HS 578T breast
CAKI-1 renal = test system: CAKI-1 renal
SF-295 CNS = test system: SF-295 CNS
MCF7 breast = test system: MCF7 breast
HCT-15 colon = test system: HCT-15 colon
HCT-116 colon = test system: HCT-116 colon
NCI-H522 lung = test system: NCI-H522 lung
TK-10 renal = test system: TK-10 renal
M14 melanoma = test system: M14 melanoma
SK-MEL-5 melanoma = test system: SK-MEL-5 melanoma
K-562 leukemia = test system: K-562 leukemia
COLO 205 colon = test system: COLO 205 colon
HOP-62 NSCLC = test system: HOP-62 NSCLC
UO-31 renal = test system: UO-31 renal
BT-549 breast = test system: BT-549 breast
NCI-H226 lung = test system: NCI-H226 lung
KM12 colon = test system: KM12 colon
MDA-MB-231 breast = test system: MDA-MB-231 breast
OVCAR-5 ovarian = test system: OVCAR-5 ovarian
MALME-3M melanoma = test system: MALME-3M melanoma
SN12C renal = test system: SN12C renal
SW-620 colon = test system: SW-620 colon
NCI/ADR-RES ovarian = test system: NCI/ADR-RES ovarian
HOP-92 NSCLC = test system: HOP-92 NSCLC
NCI-H460 lung = test system: NCI-H460 lung
RPMI-8226 leukemia = test system: RPMI-8226 leukemia
A549 NSCLC = test system: A549 NSCLC
HT29 colon = test system: HT29 colon
ACHN renal = test system: ACHN renal
SK-OV-3 ovarian = test system: SK-OV-3 ovarian

Compound `CC(=O)Nc1cccc(-n2cnc3cc(-c4ccc(O)cc4)ccc32)c1` has a GI50 (RXF 393 renal) of 0.834 µM, a TGI (RXF 393 renal) of 8.27 µM and a GI50 (786-0 renal) of 0.78 µM. The TGI (786-0 renal) was 23.2 µM, the GI50 (IGROV1 ovarian) was 0.696 µM and the TGI (IGROV1 ovarian) was 29.1 µM. The GI50 (UACC-62 melanoma) was 0.35 µM, the TGI (UACC-62 melanoma) was 17.6 µM and the GI50 (SR leukemia) was 0.182 µM. The TGI (SR leukemia) was greater than 100 µM, the GI50 (DU-145 prostate) was 1.76 µM and the TGI (DU-145 prostate) was 23.6 µM. The GI50 (SF-268 CNS) was 0.982 µM, the TGI (SF-268 CNS) was 57.8 µM and the GI50 (SNB-19 CNS) was 0.872 µM. For the same compound, the TGI (SNB-19 CNS) was greater than 100 µM, the GI50 (SNB-75 CNS) was 0.232 µM and the TGI (SNB-75 CNS) was 0.929 µM. It also gave a GI50 (A498 renal) of 0.249 µM, a TGI (A498 renal) of 0.982 µM and a GI50 (OVCAR-8 ovarian) of 0.618 µM. The TGI (OVCAR-8 ovarian) was 17 µM, the GI50 (SF-539 CNS) was 0.371 µM and the TGI (SF-539 CNS) was 5.95 µM. The GI50 (HL-60(TB) leukemia) was 0.313 µM, the TGI (HL-60(TB) leukemia) was 10.6 µM and the GI50 (OVCAR-4 ovarian) was 2.42 µM. It also gave a TGI (OVCAR-4 ovarian) of 43.1 µM, a GI50 (MOLT-4 leukemia) of 0.428 µM and a TGI (MOLT-4 leukemia) of 16.2 µM. For the same compound, the GI50 (T-47D breast) was 0.534 µM, the TGI (T-47D breast) was 19.6 µM and the GI50 (PC-3 prostate) was 1.43 µM. For the same compound, the TGI (PC-3 prostate) was 42.1 µM, the GI50 (U251 CNS) was 0.365 µM and the TGI (U251 CNS) was 30.2 µM. It also gave a GI50 (HCC-2998 colon) of 3.46 µM, a TGI (HCC-2998 colon) of 49 µM and a GI50 (LOX IMVI melanoma) of 0.523 µM. For the same compound, the TGI (LOX IMVI melanoma) was 16.3 µM, the GI50 (UACC-257 melanoma) was 0.716 µM and the TGI (UACC-257 melanoma) was 45.5 µM. For the same compound, the GI50 (CCRF-CEM leukemia) was 0.515 µM, the TGI (CCRF-CEM leukemia) was 68.2 µM and the GI50 (HS 578T breast) was 0.254 µM. It also gave a TGI (HS 578T breast) of 2.46 µM, a GI50 (CAKI-1 renal) of 0.668 µM and a TGI (CAKI-1 renal) of 14 µM. For the same compound, the GI50 (SF-295 CNS) was 0.601 µM, the TGI (SF-295 CNS) was 11 µM and the GI50 (MCF7 breast) was 0.377 µM. It also gave a TGI (MCF7 breast) of 22.6 µM, a GI50 (HCT-15 colon) of 0.333 µM and a TGI (HCT-15 colon) of 18.9 µM. It also gave a GI50 (HCT-116 colon) of 0.413 µM, a TGI (HCT-116 colon) of 27.2 µM and a GI50 (NCI-H522 lung) of 0.176 µM. It also gave a TGI (NCI-H522 lung) of 0.503 µM, a GI50 (TK-10 renal) of 5.95 µM and a TGI (TK-10 renal) of 47.4 µM. For the same compound, the GI50 (M14 melanoma) was 0.289 µM, the TGI (M14 melanoma) was 77 µM and the GI50 (SK-MEL-5 melanoma) was 0.316 µM. The TGI (SK-MEL-5 melanoma) was 15.8 µM, the GI50 (K-562 leukemia) was 0.169 µM and the TGI (K-562 leukemia) was greater than 100 µM. For the same compound, the GI50 (COLO 205 colon) was 3.86 µM, the TGI (COLO 205 colon) was 40.1 µM and the GI50 (HOP-62 NSCLC) was 0.82 µM. The TGI (HOP-62 NSCLC) was 22.5 µM, the GI50 (UO-31 renal) was 0.716 µM and the TGI (UO-31 renal) was 15 µM. It also gave a GI50 (BT-549 breast) of 0.342 µM, a TGI (BT-549 breast) of 11.2 µM and a GI50 (NCI-H226 lung) of 0.779 µM. For the same compound, the TGI (NCI-H226 lung) was 4.26 µM, the GI50 (KM12 colon) was 5.42 µM and the TGI (KM12 colon) was 68.2 µM. The GI50 (MDA-MB-231 breast) was 0.46 µM, the TGI (MDA-MB-231 breast) was greater than 100 µM and the GI50 (OVCAR-5 ovarian) was 10.6 µM. It also gave a TGI (OVCAR-5 ovarian) greater than 100 µM, a GI50 (MALME-3M melanoma) of 0.583 µM and a TGI (MALME-3M melanoma) of 49.8 µM. For the same compound, the GI50 (SN12C renal) was 0.546 µM, the TGI (SN12C renal) was 41.4 µM and the GI50 (SW-620 colon) was 0.368 µM. For the same compound, the TGI (SW-620 colon) was 36.5 µM, the GI50 (NCI/ADR-RES ovarian) was 0.428 µM and the TGI (NCI/ADR-RES ovarian) was 11.5 µM. It also gave a GI50 (HOP-92 NSCLC) of 0.94 µM, a TGI (HOP-92 NSCLC) of 28.8 µM and a GI50 (NCI-H460 lung) of 0.386 µM. It also gave a TGI (NCI-H460 lung) of 14.6 µM, a GI50 (RPMI-8226 leukemia) of 0.494 µM and a TGI (RPMI-8226 leukemia) of 9.23 µM. It also gave a GI50 (A549 NSCLC) of 0.73 µM, a TGI (A549 NSCLC) of 80.9 µM and a GI50 (HT29 colon) of 3.24 µM. The TGI (HT29 colon) was 19 µM, the GI50 (ACHN renal) was 0.894 µM and the TGI (ACHN renal) was 16.8 µM. For the same compound, the GI50 (SK-OV-3 ovarian) was 1.16 µM and the TGI (SK-OV-3 ovarian) was 22.1 µM.
